Measurements taken from PubChem BioAssay AID1963441 (Molecular Pharmacology Branch, DTP, NCI, 2024).

System: NCI-H1876 complex spheroid growth, % test/control
Experiment: Anticancer human tumor NCI-H1876 cell line growth inhibition [Asc];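 note: compound exposure lasted 7 days starting three days after seeding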;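 for viability, T/C: 100% = DMSO vehicle control wells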
Conditions: for IC50: curve of first compound; for viability, T/C: stronger effect = lower value
In short: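 Complex solid-tumor spheroids incorporating human endothelial and mesenchymal stem cells received single agents or combinations over half-log dilution ranges anchored to clinical Cmax.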

In the case of Cc1nc(N2CCC3(CC2)COC(C)C3N)c(CO)nc1Sc1ccnc(N)c1Cl (configuration not stated) + CCN1C(C(=O)NC23CCC(C(=O)O)(CC2)CC3)C(c2cccc(Cl)c2F)C2(C(=O)Nc3cc(Cl)ccc32)C12CCCCC2, the IC50 (second compound 0.00949 µM) is reported as > 3 µM, the IC50 (second compound 0.03 µM) is reported as > 3 µM and the IC50 (second compound 0.0949 µM) is reported as > 3 µM. For the same compound, the IC50 (second compound 0.3 µM) was > 3 µM, the IC50 (second compound 0.949 µM) was > 3 µM and the IC50 (second compound 3 µM) was > 3 µM. For the same compound, the viability, T/C (second compound 0.00949 µM, first compound 0.00949 µM) was 89.1%, the viability, T/C (second compound 0.00949 µM, first compound 0.03 µM) was 90% and the viability, T/C (second compound 0.00949 µM, first compound 0.0949 µM) was 92.1%. For the same compound, the viability, T/C (second compound 0.00949 µM, first compound 0.3 µM) was 102%, the viability, T/C (second compound 0.00949 µM, first compound 0.949 µM) was 91.6% and the viability, T/C (second compound 0.00949 µM, first compound 3 µM) was 77.5%. It also gave a viability, T/C (second compound 0.03 µM, first compound 0.00949 µM) of 99.6%, a viability, T/C (second compound 0.03 µM, first compound 0.03 µM) of 104% and a viability, T/C (second compound 0.03 µM, first compound 0.0949 µM) of 118%. The viability, T/C (second compound 0.03 µM, first compound 0.3 µM) was 93.5%, the viability, T/C (second compound 0.03 µM, first compound 0.949 µM) was 92.4% and the viability, T/C (second compound 0.03 µM, first compound 3 µM) was 80.2%. For the same compound, the viability, T/C (second compound 0.0949 µM, first compound 0.00949 µM) was 103%, the viability, T/C (second compound 0.0949 µM, first compound 0.03 µM) was 113% and the viability, T/C (second compound 0.0949 µM, first compound 0.0949 µM) was 94.3%. The viability, T/C (second compound 0.0949 µM, first compound 0.3 µM) was 92.4%, the viability, T/C (second compound 0.0949 µM, first compound 0.949 µM) was 93.9% and the viability, T/C (second compound 0.0949 µM, first compound 3 µM) was 87.3%. The viability, T/C (second compound 0.3 µM, first compound 0.00949 µM) was 109%, the viability, T/C (second compound 0.3 µM, first compound 0.03 µM) was 104% and the viability, T/C (second compound 0.3 µM, first compound 0.0949 µM) was 93.4%. It also gave a viability, T/C (second compound 0.3 µM, first compound 0.3 µM) of 99.5%, a viability, T/C (second compound 0.3 µM, first compound 0.949 µM) of 88.7% and a viability, T/C (second compound 0.3 µM, first compound 3 µM) of 88.7%. It also gave a viability, T/C (second compound 0.949 µM, first compound 0.00949 µM) of 108%, a viability, T/C (second compound 0.949 µM, first compound 0.03 µM) of 106% and a viability, T/C (second compound 0.949 µM, first compound 0.0949 µM) of 103%. The viability, T/C (second compound 0.949 µM, first compound 0.3 µM) was 109%, the viability, T/C (second compound 0.949 µM, first compound 0.949 µM) was 105% and the viability, T/C (second compound 0.949 µM, first compound 3 µM) was 87%. It also gave a viability, T/C (second compound 3 µM, first compound 0.00949 µM) of 108%, a viability, T/C (second compound 3 µM, first compound 0.03 µM) of 97.9% and a viability, T/C (second compound 3 µM, first compound 0.0949 µM) of 74%. The viability, T/C (second compound 3 µM, first compound 0.3 µM) was 90.3%, the viability, T/C (second compound 3 µM, first compound 0.949 µM) was 90.1% and the viability, T/C (second compound 3 µM, first compound 3 µM) was 67%.
